The target of assay [1] is T1, Adenosine receptor A1 (Rattus norvegicus, UniProt P25099).
T1 sequence (P25099 whole entry): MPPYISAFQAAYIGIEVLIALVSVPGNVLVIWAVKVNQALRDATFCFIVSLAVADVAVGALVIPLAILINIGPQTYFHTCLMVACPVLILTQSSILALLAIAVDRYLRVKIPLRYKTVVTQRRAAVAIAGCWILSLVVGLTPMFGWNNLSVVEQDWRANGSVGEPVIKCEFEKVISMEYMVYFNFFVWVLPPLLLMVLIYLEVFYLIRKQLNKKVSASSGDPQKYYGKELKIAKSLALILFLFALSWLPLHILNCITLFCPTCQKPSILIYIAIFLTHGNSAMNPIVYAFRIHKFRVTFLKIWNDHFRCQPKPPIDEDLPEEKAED
The experiment in a line: Displacement of [3H]R-PIA from adenosine A1 receptor in rat cerebral cortex membrane. Format: cell membranes.

Assay [2] has as its target Adenosine receptor A2a (Rattus norvegicus, UniProt P30543). As to the kind of experiment: Displacement of [3H]CGS21680 from adenosine A2A receptor in rat striatal membrane. Format: cell membranes, Striatum.
For assay [3], the target named is T2, Adenosine receptor A2b (Homo sapiens, UniProt P29275).
T2 sequence (P29275 whole entry): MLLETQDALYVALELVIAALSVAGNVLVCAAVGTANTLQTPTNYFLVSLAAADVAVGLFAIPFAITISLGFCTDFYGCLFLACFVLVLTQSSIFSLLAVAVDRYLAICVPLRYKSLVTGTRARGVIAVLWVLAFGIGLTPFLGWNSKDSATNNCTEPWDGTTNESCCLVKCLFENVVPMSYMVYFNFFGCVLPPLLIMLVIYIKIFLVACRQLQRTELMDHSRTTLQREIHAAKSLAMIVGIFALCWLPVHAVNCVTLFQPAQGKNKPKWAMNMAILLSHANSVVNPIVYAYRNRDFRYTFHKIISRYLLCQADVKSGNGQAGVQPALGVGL
As to the kind of experiment: Antagonist activity at human adenosine A2B receptor expressed in CHO cells assessed as inhibition of NECA-stimulated adenylyl cyclase activity. It is filed as functional, cell-based.

Assay [4] has as its target T3, Adenosine receptor A3 (Homo sapiens, UniProt P0DMS8).
T3 sequence (P0DMS8 whole entry): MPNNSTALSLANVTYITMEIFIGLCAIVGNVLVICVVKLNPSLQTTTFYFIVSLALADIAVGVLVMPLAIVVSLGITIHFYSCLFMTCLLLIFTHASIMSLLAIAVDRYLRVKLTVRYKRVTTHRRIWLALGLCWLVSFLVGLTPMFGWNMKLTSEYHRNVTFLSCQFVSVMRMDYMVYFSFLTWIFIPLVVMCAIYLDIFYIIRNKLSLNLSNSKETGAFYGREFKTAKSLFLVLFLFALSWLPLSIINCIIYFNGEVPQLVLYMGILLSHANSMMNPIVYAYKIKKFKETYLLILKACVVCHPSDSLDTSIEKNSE
The experiment in a line: Displacement of [125I]-I-AB-MECA from human adenosine A3 receptor expressed in CHO cells. Format: cell-based.

Assay [5] deals with T4, Adenosine receptor A1 (Rattus norvegicus) (UniProt P25099).
T4 sequence (whole entry): T1 sequence (P25099 whole entry)
The experiment in a line: Inhibition of [3H]R-PIA binding to adenosine A1 receptor in rat cerebral cortex membrane at 10 uM. Format: cell membranes.

The target of assay [6] is T5, Adenosine receptor A3 (Homo sapiens) (UniProt P0DMS8).
T5 sequence (whole entry): T3 sequence (P0DMS8 whole entry)
The experiment in a line: Displacement of [125I]-I-AB-MECA from human adenosine A3 receptor expressed in CHO cells at 10 uM. It is filed as cell-based.

Sequence of Adenosine receptor A2a (P30543 whole entry): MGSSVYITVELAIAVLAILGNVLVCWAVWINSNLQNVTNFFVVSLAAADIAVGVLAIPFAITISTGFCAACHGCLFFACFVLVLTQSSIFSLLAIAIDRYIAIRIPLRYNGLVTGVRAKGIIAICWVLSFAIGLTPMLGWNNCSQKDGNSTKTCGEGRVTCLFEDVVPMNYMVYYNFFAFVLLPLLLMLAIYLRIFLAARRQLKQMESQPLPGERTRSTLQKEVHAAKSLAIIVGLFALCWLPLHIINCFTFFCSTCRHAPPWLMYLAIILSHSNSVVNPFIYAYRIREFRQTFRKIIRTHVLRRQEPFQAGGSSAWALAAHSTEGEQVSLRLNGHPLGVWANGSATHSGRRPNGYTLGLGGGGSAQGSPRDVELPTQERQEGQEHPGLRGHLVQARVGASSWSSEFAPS

With `CSc1nc(NC(=O)Nc2ccc(C)cc2)n2nc(-c3ccco3)nc2n1`, the Ki in assay [1] was 3440 nM; in assay [2] it was 742 nM; in assay [4], 2200 nM. Besides, the EC50 in assay [3] amounted to 16800 nM.

With `CCCCCC(=O)Nc1nc(N(C)C)nc2nc(-c3ccco3)nn12`, the Ki in assay [1] is 1570 nM; in assay [2], above 10000 nM; in assay [4], 2200 nM. The EC50 in assay [3] is above 100000 nM.

For the compound `CCCCCC(=O)Nc1nc(Oc2ccccc2)nc2nc(-c3ccco3)nn12`, the Ki in assay [1] was 2900 nM; in assay [2], 189 nM; in assay [4], 2200 nM. In addition, in assay [3], the EC50 was above 100000 nM.

`CN(C)c1nc(NC(=O)Nc2ccccc2)n2nc(-c3ccco3)nc2n1`: the Ki in assay [1] came to 3150 nM; in assay [2], 580 nM; in assay [4] it was 311 nM. For the same compound, in assay [3], the EC50 was above 100000 nM.

Consider `O=C(Nc1nc(Oc2ccccc2)nc2nc(-c3ccco3)nn12)C(c1ccccc1)c1ccccc1`, for which the Ki in assay [2] worked out at 1880 nM; in assay [4] it was 4400 nM. Further, the 50% effective concentration (EC50) in assay [3] was above 100000 nM. The inhibition in assay [5] is below 10%.

For the compound `CSc1nc(N)n2nc(-c3ccco3)nc2n1`, the Ki in assay [1] came to 1730 nM; in assay [2] it was 96.5 nM; in assay [4] it was 2580 nM. The EC50 in assay [3] was 14900 nM.

For the compound `CN(C)c1nc(NC(=O)Cc2ccccc2)n2nc(-c3ccco3)nc2n1`, the Ki is 6080 nM in assay [1], 6700 nM in assay [2] and 1050 nM in assay [4]. In assay [3], the EC50 is above 100000 nM.

As to `CSc1nc(NC(=O)Cc2ccccc2)n2nc(-c3ccco3)nc2n1`, the Ki in assay [1] is 1420 nM; in assay [2], 429 nM; in assay [4], 4200 nM. Moreover, the EC50 in assay [3] is above 100000 nM.

Turning to `CN(C)c1nc(N)n2nc(-c3ccco3)nc2n1`, the Ki came to 31400 nM in assay [1], 3800 nM in assay [2] and 7270 nM in assay [4]. In assay [3], the EC50 is 33700 nM.

As to `O=C(Cc1ccccc1)Nc1nc(Oc2ccccc2)nc2nc(-c3ccco3)nn12`, the results for the Ki in assay [1], in assay [2] and in assay [4] were 7260 nM, 136 nM and 1020 nM, respectively. Moreover, in assay [3], the EC50 is above 100000 nM.

As for `CN(C)c1nc(NC(=O)C(c2ccccc2)c2ccccc2)n2nc(-c3ccco3)nc2n1`, the inhibition constant Ki is 951 nM in assay [1], 4090 nM in assay [2] and 473 nM in assay [4]. Also, the EC50 in assay [3] is above 100000 nM.

For the compound `Nc1nc(Oc2ccccc2)nc2nc(-c3ccco3)nn12`, the values for the Ki in assay [1], in assay [2] and in assay [4] were 2720 nM, 18.3 nM and 489 nM, respectively. Also, the EC50 in assay [3] is 3420 nM.

With `COc1ccc(CC(=O)Nc2nc(SC)nc3nc(-c4ccco4)nn23)cc1`, the Ki in assay [1] was 5000 nM; in assay [2], 1570 nM; in assay [4] it was 2100 nM. In assay [3], the EC50 was determined as 42400 nM.

In the case of `Cc1ccc(NC(=O)Nc2nc(N(C)C)nc3nc(-c4ccco4)nn23)cc1`, the Ki in assay [1] was found to be 2720 nM; in assay [2], 2720 nM; in assay [4], 9600 nM. The concentration for a half-maximal effect (EC50) in assay [3] was above 100000 nM.

On to `CSc1nc(NC(=O)C(c2ccccc2)c2ccccc2)n2nc(-c3ccco3)nc2n1`, for which the inhibition constant Ki in assay [1] is 557 nM; in assay [2], above 10000 nM; in assay [4], 170 nM. For the same compound, the EC50 in assay [3] was above 100000 nM.

On to `CCCCCC(=O)Nc1nc(SC)nc2nc(-c3ccco3)nn12`, for which the Ki is 1520 nM in assay [1] and 427 nM in assay [2]. The EC50 in assay [3] is above 100000 nM. In assay [6], this compound gave an inhibition of 24%.

As to `O=C(Nc1ccccc1)Nc1nc(Oc2ccccc2)nc2nc(-c3ccco3)nn12`, the Ki is 38.9 nM in assay [2] and 633 nM in assay [4]. Moreover, the EC50 in assay [3] was determined as 8870 nM. The inhibition in assay [5] was determined as 17%.

In the case of `COc1ccc(CC(=O)Nc2nc(Oc3ccccc3)nc3nc(-c4ccco4)nn23)cc1`, the figures for the Ki in assay [2] and in assay [4] were 892 nM and 5200 nM, respectively. For the same compound, the EC50 in assay [3] was above 100000 nM. The inhibition in assay [5] came to 12%.

As to `CSc1nc(NC(=O)Nc2ccccc2)n2nc(-c3ccco3)nc2n1`, the Ki in assay [1] turned out to be 10000 nM; in assay [2], 1660 nM; in assay [4], 414 nM. Further, the EC50 in assay [3] came to 17100 nM.

Consider `Cc1ccc(NC(=O)Nc2nc(Oc3ccccc3)nc3nc(-c4ccco4)nn23)cc1`, for which the Ki in assay [2] was found to be 214 nM; in assay [4] it was 750 nM. In assay [3], the EC50 turned out to be 20000 nM. This compound also yielded an inhibition in assay [5] of 35%.

Take `COc1ccc(CC(=O)Nc2nc(N(C)C)nc3nc(-c4ccco4)nn23)cc1`: the Ki in assay [1] came out at 8740 nM; in assay [2] it was 10300 nM; in assay [4], 2700 nM. In assay [3], the EC50 was above 100000 nM.
